Earlier results as cited in patent US11439638B1, “Drug and diagnostic combination system to identify and treat single-stranded RNA viruses including coronaviruses” (priority 2021, dated 2022).

Assays:
[1] = test system: influenza viruses, arenaviruses, bunyaviruses, and filoviruses
SARS-CoV-2 = conditions: mammalian cells, in vitro

Molecule	effectiveness against viruses [1]	replication of SARS-CoV-2 (SARS-CoV-2)	inhibition of dengue virus (dengue virus)	inhibition of yellow fever virus (yellow fever virus)
NC(=O)c1nc(F)cn([C@@H]2O[C@H](COP(=O)(O)OP(=O)(O)OP(=O)(O)O)[C@@H](O)[C@H]2O)c1=O [favipiravir-RTP]	effective			
ivermectin		slow replication	inhibit	inhibit
NC(=O)c1nc(F)c[nH]c1=O [Favipiravir, favipiravir]	effective			
